These results are taken from ChEMBL document CHEMBL2086263, “Synthesis and SAR studies of 3-allyl-4-prenyloxyaniline amides as potent 15-lipoxygenase inhibitors” (Bioorg Med Chem, 2012).

Assay [1] has as its system Radical scavenging activity. Nature of the assay: Antioxidant activity assessed as inhibition of DPPH radical scavenging activity after 30 mins by spectrophotometry. In kind it is functional.
Assay [2] is described as follows: Inhibition of soybean 15-lipoxygenase using linoleic acid as substrate incubated for 5 mins prior to substrate addition measured after 7 mins by DMAB-MBTH method. Set-up: species or system Glycine max.

As to `C=CCc1cc(NC(=O)C23CC4CC(CC(C4)C2)C3)ccc1OC/C=C(\C)CCC=C(C)C`, the IC50 in assay [1] came out at 121 µM; in assay [2], 3.6 µM.

As to `C=CCc1cc(NC(=O)C23CC4CC(CC(C4)C2)C3)ccc1OC/C=C(\C)CC/C=C(\C)CCC=C(C)C`, the figures for the IC50 in assay [1] and in assay [2] were 114 µM and 0.69 µM, respectively.

Take `C=CCc1cc(NC(=O)C23CC4CC(CC(C4)C2)C3)ccc1OCC=C(C)C`: the IC50 in assay [1] was found to be 105 µM; in assay [2] it was 10.3 µM.

For `C=CCOc1ccc(NC(=O)C2CCCCC2)cc1CC=C`, the concentration for half-maximal inhibition (IC50) in assay [2] was found to be 18.5 µM.

On to `C=CCc1cc(NC(=O)C2CC2)ccc1OC/C=C(\C)CC/C=C(\C)CCC=C(C)C`, for which the IC50 in assay [1] turned out to be 8.9 µM; in assay [2], 16.5 µM.

`C=CCOc1ccc(NC(C)=O)cc1CC=C` yielded an IC50 in assay [2] of 67.8 µM.

In turn, `C=CCOc1ccc(NC(=O)C23CC4CC(CC(C4)C2)C3)cc1CC=C` registered an IC50 in assay [2] of 9.8 µM.

Take `C=CCOc1ccc(NC(=O)C2CCCC2)cc1CC=C`: 58 µM corresponded to half-maximal inhibition in assay [2] (IC50).

Take `O=C(O)/C=C/c1ccc(O)c(O)c1` [CAFFEIC ACID]: in assay [2], half-maximal inhibition (IC50) was put at 37.1 µM.

For `C=CCc1cc(NC(=O)C2CCCCC2)ccc1OC/C=C(\C)CC/C=C(\C)CCC=C(C)C`, the IC50 came to 529 µM in assay [1] and 5.2 µM in assay [2].

`CC(Cc1ccc(O)c(O)c1)C(C)Cc1ccc(O)c(O)c1` (stereo unspecified) [NORDIHYDROGUAIARETIC ACID]: the IC50 in assay [1] is 6.2 µM.

As to `C=CCOc1ccc(NC(=O)C2CC2)cc1CC=C`, in assay [2], 54.1 µM corresponded to half-maximal inhibition (IC50).

For `C=CCc1cc(NC(=O)C2CCC2)ccc1OC/C=C(\C)CC/C=C(\C)CCC=C(C)C`, the IC50 in assay [1] is 140 µM; in assay [2] it was 2.1 µM.

For `Cc1nc(N2CCN(C)CC2)nc2c1Nc1ccccc1S2`, in assay [2], the IC50 is 28.2 µM.

In assay [2], `C=CCOc1ccc(NC(=O)C2CCC2)cc1CC=C` had an IC50 of 19.6 µM.

As to `C=CCc1cc(NC(C)=O)ccc1OC/C=C(\C)CC/C=C(\C)CCC=C(C)C`, the IC50 in assay [1] was found to be 225 µM; in assay [2], 24.8 µM.

On to `C=CCc1cc(NC(=O)C2CCCC2)ccc1OC/C=C(\C)CC/C=C(\C)CCC=C(C)C`, for which the half-inhibitory concentration (IC50) in assay [1] is 461 µM; in assay [2] it was 35.7 µM.

Compound `C=CCOc1ccc(NC(=O)C23CC4CC(CC(C4)C2)C3)cc1` returned an IC50 in assay [2] of 27.8 µM.
